Data on 1 compound can be found in patent US20020061836A1, “Methods for altering SXR activation using peptide mimetic HIV protease inhibitor SXR ligands” (priority 2000, published 2002).

For one data set, the target named is P-glycoprotein (Mus musculus, UniProt P21447). The note with it: orally administered; cited from earlier work.
For data set [1], the system named is LS180 human colon cancer cells. The data set can be described thus: [14C]-paclitaxel efflux from pretreated LS180 cells. The data set is classed as cell-based. The note with it: LS180 cells induced 48 hours with 10 μM paclitaxel, 10 μM docetaxel or 100 nM LG268. How it is done: Taxane-induced drug efflux was measured using pretreated LS180 human colon cancer cells. The rate of drug efflux was measured. […] Individual data points are the means of triplicate determinations, error bars represent standard deviation and the lines are lines of regression. The slope of each line (rate of efflux) was compared to the slope obtained in the control (untreated) cells using an analysis of covariance. […] The entire experiment was performed three times with similar results. […] The cells were then incubated in media supplemented with 10 μM [^14C]-paclitaxel (4.9 μCi/umol, Moravek Biochemicals, Brea, Calif.) for 15 minutes. The uptake of ^14C-paclitaxel reached maximum levels at 10-12 minutes (data not shown). After 15 minutes, the cells were then rapidly centrifuged through silicone oil to remove all traces of extracellular radioactivity, resuspended in fresh media, and cell counts determined. At multiple time points over the next 10 minutes, triplicate aliquots of the cell suspension (approx. 1×10^5 cells/aliquot) were again centrifuged through silicon oil and the radioactivity in the cell pellet measured by quench-corrected liquid scintillation counting. The rate of [^14C]-paclitaxel efflux was determined as the slope of the [^14C]-paclitaxel versus time plots using all data. The slope for each inducer was compared to the slope obtained in the control (untreated) cells using an analysis of covariance.

Data set [2] concerns thyroid hormone receptor β (TRβ). The note with it: 10 μM paclitaxel.
The next data set concerns the target T1, mouse CARβ (Mus musculus, UniProt O35627).
T1 sequence (O35627 1-358): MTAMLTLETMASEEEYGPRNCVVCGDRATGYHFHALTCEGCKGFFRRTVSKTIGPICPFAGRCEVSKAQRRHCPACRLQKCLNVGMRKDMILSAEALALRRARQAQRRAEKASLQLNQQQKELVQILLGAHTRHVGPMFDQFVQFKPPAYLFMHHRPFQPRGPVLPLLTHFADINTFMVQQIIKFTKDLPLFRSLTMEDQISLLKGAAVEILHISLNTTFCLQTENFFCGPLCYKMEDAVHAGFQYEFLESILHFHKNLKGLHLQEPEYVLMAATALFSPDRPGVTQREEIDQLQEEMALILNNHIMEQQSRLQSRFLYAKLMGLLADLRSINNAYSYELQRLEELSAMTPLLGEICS
The data set can be described thus: Nuclear receptor specificity transfection assay / LXRE×3-TK-luc reporter with CARβ in CV-1 cells. The conditions noted are these: 10 μM paclitaxel. The data set is classed as cell-based.

A further data set deals with T2, mouse PPARα (Mus musculus, UniProt P23204).
T2 construct: expressed in transfected cells; host or cells: CV-1
T2 sequence (P23204 1-468): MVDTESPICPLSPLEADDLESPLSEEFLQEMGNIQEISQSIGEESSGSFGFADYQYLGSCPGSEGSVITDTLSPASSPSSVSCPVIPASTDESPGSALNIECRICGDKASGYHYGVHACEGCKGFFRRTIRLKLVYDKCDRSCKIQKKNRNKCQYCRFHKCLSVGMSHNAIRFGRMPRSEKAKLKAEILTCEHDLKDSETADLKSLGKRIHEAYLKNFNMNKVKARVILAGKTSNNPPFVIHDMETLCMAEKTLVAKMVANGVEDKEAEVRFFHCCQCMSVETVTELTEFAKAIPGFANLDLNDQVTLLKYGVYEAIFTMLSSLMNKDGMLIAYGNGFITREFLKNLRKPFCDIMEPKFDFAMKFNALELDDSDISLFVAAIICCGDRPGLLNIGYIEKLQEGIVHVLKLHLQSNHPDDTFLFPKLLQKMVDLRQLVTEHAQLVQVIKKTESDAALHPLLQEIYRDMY
Nature of the data set: Nuclear receptor specificity transfection assay. The data set is classed as cell-based. The note with it: 10 μM paclitaxel.

For data set [3], the system named is MDR1 protein (P-glycoprotein). The data set can be described thus: Western analysis with P-glycoprotein antibody of LS180 cells. The data set is classed as cell-based, human. The note with it: 10 μM, 48 hours.
Experimental: Western Blotting was performed according to the following methods. Human LS180 cells in log phase growth were treated for 48 hours with the compounds indicated in the pertinent Figures. The cells were harvested, washed with phosphate buffered saline (PBS) and homogenized using 12-15 strokes of a Wheaton teflon-glass homogenizer. Cell debris was removed by centrifugation at 1500×g for 10 minutes, and the resulting supernatant was sedimented at 150,000×g for one hour at 4° C. to pellet the membranes. The membrane pellets were resuspended in PBS containing 1 mM phenylmethylsulfonyl fluoride and protein concentrations were determined according to standard prior art methods. […] The membranes were blocked with 5% non-fat dry milk in PBS with 0.1% Tween-20 (PBS-T) before incubation with a 1:500 dilution of P-glycoprotein antibody (Ab-1, Oncogene Research Products, Boston, Mass.) in blocking buffer for six hours at room temperature. Following several washes with PBS-T, membranes were incubated with a 1:1000 dilution of horseradish peroxidase-conjugated secondary anti-rabbit IgG antibodies. (Santa Cruz Biotechnology, Santa Cruz, Calif.) in blocking buffer for one hour at room temperature.

Chain of P-glycoprotein (P21447 whole entry): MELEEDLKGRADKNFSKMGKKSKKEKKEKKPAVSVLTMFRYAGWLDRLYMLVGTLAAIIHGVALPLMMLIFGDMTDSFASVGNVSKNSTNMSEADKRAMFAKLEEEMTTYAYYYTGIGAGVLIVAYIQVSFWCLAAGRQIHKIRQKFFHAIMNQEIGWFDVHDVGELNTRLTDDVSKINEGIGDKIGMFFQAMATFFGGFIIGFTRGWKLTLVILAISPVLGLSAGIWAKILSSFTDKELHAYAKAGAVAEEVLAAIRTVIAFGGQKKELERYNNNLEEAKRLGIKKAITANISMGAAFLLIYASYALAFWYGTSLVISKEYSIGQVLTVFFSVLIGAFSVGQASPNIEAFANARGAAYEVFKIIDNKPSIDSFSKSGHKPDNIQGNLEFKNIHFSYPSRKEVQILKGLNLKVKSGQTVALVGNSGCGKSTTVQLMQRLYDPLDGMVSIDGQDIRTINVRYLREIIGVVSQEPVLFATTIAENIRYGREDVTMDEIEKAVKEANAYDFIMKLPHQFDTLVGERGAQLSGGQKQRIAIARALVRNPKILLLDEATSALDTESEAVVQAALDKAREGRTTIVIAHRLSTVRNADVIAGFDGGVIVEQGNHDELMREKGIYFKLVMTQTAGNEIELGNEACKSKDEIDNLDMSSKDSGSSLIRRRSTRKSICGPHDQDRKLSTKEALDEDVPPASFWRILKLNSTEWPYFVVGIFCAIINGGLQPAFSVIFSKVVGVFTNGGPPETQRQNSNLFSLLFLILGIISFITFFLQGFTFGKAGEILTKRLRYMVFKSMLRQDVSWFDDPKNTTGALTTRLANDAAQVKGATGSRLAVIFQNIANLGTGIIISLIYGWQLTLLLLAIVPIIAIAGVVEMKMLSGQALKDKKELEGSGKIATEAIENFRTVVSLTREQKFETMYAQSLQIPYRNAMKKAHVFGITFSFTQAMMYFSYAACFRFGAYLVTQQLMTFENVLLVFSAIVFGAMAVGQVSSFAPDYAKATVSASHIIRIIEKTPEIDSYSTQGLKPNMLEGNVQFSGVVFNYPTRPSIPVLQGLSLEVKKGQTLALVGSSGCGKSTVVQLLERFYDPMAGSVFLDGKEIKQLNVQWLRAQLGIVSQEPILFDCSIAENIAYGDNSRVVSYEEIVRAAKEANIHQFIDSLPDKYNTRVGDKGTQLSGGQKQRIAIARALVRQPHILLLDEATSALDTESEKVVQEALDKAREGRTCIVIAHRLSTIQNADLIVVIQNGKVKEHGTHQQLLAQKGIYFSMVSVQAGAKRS

As for `CC(=O)O[C@H]1C(=O)[C@@]2(C)[C@H]([C@H](OC(=O)c3ccccc3)[C@]3(O)C[C@H](OC(=O)[C@H](O)[C@@H](NC(=O)c4ccccc4)c4ccccc4)C(C)=C1C3(C)C)[C@]1(OC(C)=O)CO[C@@H]1C[C@@H]2O` [paclitaxel], the “fecal excretion for which P-glycoprotein is responsible” value at P-glycoprotein is given as 85%. The “rate of [14C]-paclitaxel efflux versus untreated cells” value in data set [1] is given as “significantly faster”. The “effect on TRβ reporter activity” value in data set [2] was “no effect”. The “effect on CARβ reporter activity” value at mouse CARβ is on record as “no effect”. Further, the “effect on PPARα reporter activity” value on mouse PPARα was “no effect”. In data set [3], the “induction of MDR1 protein (P-glycoprotein) expression” value is recorded as “much more effective than docetaxel”.
